Source: publication PMC7003431, “Betulinic acid shows anticancer activity against equine melanoma cells and permeates isolated equine skin in vitro” (BMC Veterinary Research, 2020)
Each block holds one compound with its values, some of them ahead of it.

Key:
[1] = system: equine melanoma cells MelJess; parameters: method as in PMID 26772157; conditions: 96 h incubation, read-out: IC50, sulforhodamine B assay; cited from earlier work
[2] = system: equine melanoma cells MelDuWi; parameters: method as in PMID 26772157; conditions: 96 h incubation, read-out: IC50, sulforhodamine B assay; cited from earlier work
[3] = system: primary equine melanoma cells eRGO1; experiment: Crystal violet staining (CVS) proliferation assay; assay type: cell-based, horse; conditions: Equus caballus, mean (95% CI), 6–8 experiments
Protocol: (§1) The inhibitory effect of BA on cell proliferation was evaluated using a modified crystal violet staining (CVS) assay. In brief, cells were seeded into 96-well microtiter plates with a density of 5000 cells/well to avert confluence of the cells during the experimental period. Twenty-four hours later, the cells were treated with serial dilutions of BA dissolved in DMSO and medium at nine different concentrations ranging from 1 to 100 μmol/L. The highest concentration of DMSO solvent was 0.5% in 100 μmol/L, which had neither an impact on the cell proliferation rate nor on the cell survival rate (preliminary experiments and regular controls within the experiments; data not shown). Control cells were only treated with medium. The proportion of treated cells in relation to untreated controls was determined 5, 24, 48 and 96 h after the beginning of the drug exposure. The medium for 96-h experiments was renewed before cell treatment (24 h after inoculation). The medium-compound mix was discarded at the time points mentioned above and cells were fixed with 2% glutaraldehyde (Sigma-Aldrich) in PBS for 20 min. Glutaraldehyde was removed and cells were dyed for 30 min with 0.1% crystal violet (Roth GmbH, Karlsruhe, Germany) in deionized water. After washing with deionized water, the plates were air-dried. Subsequently, crystal violet was solubilized out of the cells by adding 2% Triton X-100 (Sigma-Aldrich, Steinheim, Germany) in deionized water. After 1 h of incubation, absorbance was measured at 570 nm using a 96-well microtiter plate reader (MRX microplate reader, Dynatech Laboratories, El Paso, US). Experiments were performed in six to eight biological replicates with two technical replicates for each combination of cell type, incubation time and pharmacologic compound concentration. The ratios of mean optical density of the duplicate to mean optical density of the associated controls were used for dose-response curves.
(§2) Technical duplicates with a coefficient of variation of more than 20% were excluded from the analysis of the cell assays. The pharmacodynamic model 108 of Phoenix® WinNonlin® software (version 8.1, Certara, USA) was used to determine half-maximal inhibitory concentrations (IC50 values). Further statistical analysis was performed with R 3.5.1 [60]. A generalized additive model was fitted for both MTS and CVS using the ‘mgcv’ package to estimate the effects of the BA concentration, cell line and duration of incubation on the ratio of the mean optical density of the duplicates from six to eight replicates to the mean optical density of the associated controls. The effect of concentration was modelled as a smoothed term interacting with the duration of incubation using a thin plate regression spline. The P-values were obtained by performing a Wald test for each parameter. Post-hoc comparisons for the cell line and duration of incubation were performed using the ‘multcomp’ package with single-step adjustment of the P-values. Plots were produced with ggplot2 [63]. Statistical significance was set at P < 0.05.

[4] = system: primary equine melanoma cells MelDuWi; experiment: Crystal violet staining (CVS) proliferation assay; assay type: cell-based, horse; conditions: Equus caballus, mean (95% CI), 6–8 experiments
Protocol: as §1, §2

[5] = system: primary equine dermal fibroblasts PriFi2; experiment: Crystal violet staining (CVS) proliferation assay; assay type: cell-based, horse; conditions: Equus caballus, Fibroblast, mean (95% CI), 6–8 experiments
Protocol: as §1, §2

[6] = system: primary equine dermal fibroblasts PriFi1; experiment: Crystal violet staining (CVS) proliferation assay; assay type: cell-based, horse; conditions: Equus caballus, Fibroblast, mean (95% CI), 6–8 experiments
Protocol: as §1, §2

[7] = system: primary equine melanoma cells compared to primary equine dermal fibroblasts; experiment: Selectivity to tumor cells compared to normal cells (MTS and CVS assays); assay type: cell-based, horse; conditions: equine melanoma cells eRGO1, MelDuWi vs fibroblasts PriFi1, PriFi2
Protocol: The inhibitory effect of BA on cell proliferation was evaluated using a modified crystal violet staining (CVS) assay. In brief, cells were seeded into 96-well microtiter plates with a density of 5000 cells/well to avert confluence of the cells during the experimental period. Twenty-four hours later, the cells were treated with serial dilutions of BA dissolved in DMSO and medium at nine different concentrations ranging from 1 to 100 μmol/L. The highest concentration of DMSO solvent was 0.5% in 100 μmol/L, which had neither an impact on the cell proliferation rate nor on the cell survival rate (preliminary experiments and regular controls within the experiments; data not shown). Control cells were only treated with medium. The proportion of treated cells in relation to untreated controls was determined 5, 24, 48 and 96 h after the beginning of the drug exposure. […] After 1 h of incubation, absorbance was measured at 570 nm using a 96-well microtiter plate reader (MRX microplate reader, Dynatech Laboratories, El Paso, US). […]
The cytotoxicity of BA was evaluated using the CellTiter 96® AQueous One Solution Cell Proliferation Assay (MTS) (Promega GmbH, Mannheim, Germany). […] After 1 h incubation, the plate absorbance was measured at 490 nm using a 96-well microtiter plate reader (MRX microplate reader, Dynatech Laboratories, El Paso, US). […]

[8] = system: primary equine melanoma cells eRGO1; experiment: MTS cytotoxicity assay (CellTiter 96 AQueous One Solution); assay type: cell-based, horse; conditions: Equus caballus, mean (95% CI), 6–8 experiments
Protocol: as §1
(§3) The cytotoxicity of BA was evaluated using the CellTiter 96® AQueous One Solution Cell Proliferation Assay (MTS) (Promega GmbH, Mannheim, Germany). Cells were seeded into 96-well microtiter plates with the appropriate cell densities to achieve confluence after 48 h (MelDuWi 30.000 cells/well; PriFi1, PriFi2, eRGO1 20.000 cells/well). After 48 h, these cells were treated in accordance with the CVS assay. Experiments were stopped at the same time points as the CVS assay. The medium for the 96-h experiments was renewed before treatment. The MTS was applied in accordance with the manufacturer’s instructions. After 1 h incubation, the plate absorbance was measured at 490 nm using a 96-well microtiter plate reader (MRX microplate reader, Dynatech Laboratories, El Paso, US). Experiments were performed in six to eight biological replicates with two technical replicates for each combination of pharmacologic compound, cell type, incubation time and concentration.
as §2, with “Plots were produced with ggplot2 [63]. Statistical significance was set at P < 0.05.” left out

[9] = system: primary equine melanoma cells MelDuWi; experiment: as above; assay type: cell-based, horse; conditions: Equus caballus, mean (95% CI), 6–8 experiments
Protocol: as §1, §3
as §2, with “Plots were produced with ggplot2 [63]. Statistical significance was set at P < 0.05.” left out

[10] = system: primary equine dermal fibroblasts PriFi2; experiment: as above; assay type: cell-based, horse; conditions: Equus caballus, Fibroblast, mean (95% CI), 6–8 experiments
Protocol: as §1, §3
as §2, with “Plots were produced with ggplot2 [63]. Statistical significance was set at P < 0.05.” left out

[11] = system: primary equine dermal fibroblasts PriFi1; experiment: as above; assay type: cell-based, horse; conditions: Equus caballus, Fibroblast, mean (95% CI), 6–8 experiments
Protocol: as §1, §3
as §2, with “Plots were produced with ggplot2 [63]. Statistical significance was set at P < 0.05.” left out

[12] = Franz-type diffusion cell penetration and permeation on isolated equine skin; assay type: in vitro ADME, horse; conditions: 24 h FDC
Source text: Skin samples from seven adult horses of different sex (three mares, two geldings, two unknown) and breed (including three Warmbloods, one Icelandic horse and one Welsh Cob pony, two unknown) were harvested at the Institute of Pathology, University of Veterinary Medicine Hannover, Foundation, Hannover, after euthanasia at the Clinic for Horses, University of Veterinary Medicine Hannover, Foundation, Hannover, for reasons unrelated to the present study. The horses’ ages ranged from 4 to 24 years, with a median of 13.5 years. Skin from the lateral thorax was dissected and stored at − 20 °C for up to 5 months.
“Basiscreme DAC” (pharmaceutical amphiphilic formulation as published in the German Drug Codex) with 1% BA and 20% medium-chain triglycerides was provided by Skinomics GmbH, Halle, Germany.
In order to investigate the penetration and permeation of 1% BA with 20% medium-chain triglycerides in “Basiscreme DAC” through equine skin, the skin samples were defrosted overnight at room temperature. The coat was clipped to a length of approximately 0.5 mm. The integrity of the skin samples was visually assessed. Skin slices of 800 μm (+/− 110 μm) thickness were obtained with an electrical dermatome (Zimmer, Eschbach, Germany). Franz-type diffusion cells (FDC) (PermeGear, Riegelsville, USA, and Gauer Glas, Püttlingen, Germany) with a diffusion area of 1.77 cm^2 and an acceptor chamber volume of approximately 12 mL were filled with PBS and 1% bovine serum albumin. The acceptor chamber content was constantly stirred with a magnetic stirrer at 500 rpm. Diffusion chambers were maintained at 34 °C to ensure a skin temperature of 32 ± 0.5 °C. Before use, equal hydration of the skin samples was obtained by 30 min immersion in PBS. After gently drying with a paper tissue, 20 mg of the drug formulation was carefully applied to the skin surface (stratum corneum) covering the complete diffusion area before mounting the skin pieces onto the FDC. The donor chamber and sampling tube were covered with parafilm.
After 24 h, the remaining donor formulation was removed from the skin with a dry cotton swab. Cotton swabs, acceptor medium and exposed areas of the skin samples, which were cut out with a scalpel blade, were stored at − 20 °C until further processing and analysis. In order to determine the amount of BA in different skin layers, frozen skin samples were fixed on tissue freezing medium (Leica Biosystems Nussloch GmbH, Nussloch, Germany) and placed in a cryostat (CryoStar™ NX70 Cryostat, Thermofisher, Darmstadt, Germany). From each skin sample slices were cut horizontally to the epidermis, starting with the stratum corneum side uppermost, and stored separately. […] After reaching a skin depth of 310 μm, slices were pooled at 5 × 20 μm until a depth of a maximum of 910 μm was reached. The blade was cleaned with tissues soaked in 70% ethanol (CG Chemikalien, Laatzen, Germany) between each cut. These cleaning tissues and skin samples were stored at − 20 °C until final analysis. An analytic high-performance liquid chromatography method was developed for BA quantification in the different skin layers, acceptor medium and cleaning utensils mentioned previously. Reverse phase analysis was performed using an Agilent 1100 system (Agilent, Waldbronn, Germany) on a Kinetex column (5 μm, C18, 100 Å, 250 × 4.6 mm; Phenomenex, Torrance, US) at 35 °C developing with acetonitrile:water (0.1% HCOOH) 4:1 (v/v) at 2.5 mL/min. The diode array detector was set at 200 nm.

actinic keratoses = system: actinic keratoses; parameters: method as in PMID 18808378; conditions: 14 human patients; cited from earlier work
[13] = 1% BA with 20% medium-chain triglycerides in Basiscreme DAC, mean ± SD

IC50 ([3]; eRGO1, 24 h treatment): 25.9 µM
IC50 ([3]; eRGO1, 48 h treatment): 21.2 µM
IC50 ([3]; eRGO1, 96 h treatment): 19.6 µM
IC50 ([4]; 24 h treatment): 49.2 µM
IC50 ([4]; 48 h treatment): 35.8 µM
IC50 ([4]; 96 h treatment): 21.6 µM
BA amount applied analyzed in the skin [12, 13]: 24 ± 1%
amount of BA applied detected in the acceptor media [12, 13]: 18 ± 11%
amount of BA applied detected in the cotton swabs ([12]; 1% BA with 20% medium-chain triglycerides in Basiscreme DAC, remaining donor formulation, mean ± SD): 56 ± 13%
recovery at 24 h, 1 % ([12]; both sexes, horse, 1% BA with 20% medium-chain triglycerides in Basiscreme DAC, mean ± SD, n = 7, read-out: overall BA recovery): 98 ± 7%
BA amount found in the blade cleaning tissues ([12]; part of the amount in skin, 1% BA cream, mean ± SD): 9 ± 7%
concentration of BA in skin ([12]; skin depth 710 μm, 1% BA cream, mean ± SD (SD 31 μmol/L)): 55.8 µM
concentration of BA in skin ([12]; skin depth 810 μm, 1% BA cream, mean ± SD (SD 38 μmol/L)): 39.6 µM
Compound: C=C(C)[C@@H]1CC[C@]2(C(=O)O)CC[C@]3(C)[C@H](CC[C@@H]4[C@@]5(C)CC[C@H](O)C(C)(C)[C@@H]5CC[C@]43C)[C@@H]12 [betulinic acid, Betulinic acid]
IC50 [1]: 33.4 µM
IC50 [2]: 33.1 µM
IC50 ([5]; PriFi2, 24 h treatment): 30.3 µM
IC50 ([5]; PriFi2, 48 h treatment): 29.1 µM
IC50 ([5]; PriFi2, 96 h treatment): 13.8 µM
IC50 ([6]; PriFi1, 24 h treatment): 58 µM
IC50 ([6]; PriFi1, 48 h treatment): 52.2 µM
IC50 ([6]; PriFi1, 96 h treatment): 14.5 µM
selectivity to tumor cells compared to normal cells [7]: could not be demonstrated
IC50 ([8]; eRGO1, 24 h treatment): 22.8 µM
IC50 ([8]; eRGO1, 48 h treatment): 20.7 µM
IC50 ([8]; eRGO1, 96 h treatment): 12.7 µM
IC50 ([9]; 24 h treatment): 34.6 µM
IC50 ([9]; 48 h treatment): 31.7 µM
IC50 ([9]; 96 h treatment): 23.6 µM
IC50 ([10]; PriFi2, 24 h treatment): 24.8 µM
IC50 ([10]; PriFi2, 48 h treatment): 22.7 µM
IC50 ([10]; PriFi2, 96 h treatment): 13.3 µM
IC50 ([11]; PriFi1, 24 h treatment): 20.4 µM
IC50 ([11]; PriFi1, 48 h treatment): 18 µM
IC50 ([11]; PriFi1, 96 h treatment): 13.8 µM

Compound: C=C(C)[C@@H]1CC[C@]2(CO)CC[C@]3(C)[C@H](CC[C@@H]4[C@@]5(C)CC[C@H](O)C(C)(C)[C@@H]5CC[C@]43C)[C@@H]12 [betulin]
side effects of topical treatment (actinic keratoses): did not lead to any side effects
